Assay results reported in PubChem BioAssay AID2060910 (Molecular Pharmacology Branch, DTP, NCI, 2025).
pIC50: −log10 of the molar value.

Tested on: 242566-281-R-J2-PDC complex spheroid viability
Test: Anticancer human tumor 242566-281-R-J2-PDC patient-derived pancreatic carcinoma cell line growth inhibition [RAS]
Conditions: for viability, T/C: stronger effect = lower value
Text: RAS pathway inhibitors in Combinations in Complex Spheroids
A high-throughput screen of multi-cell type tumor spheroids was designed to identify active combinations of RAS pathway inhibitors and targeted small molecules. Complex spheroids include a stromal component modeled by human endothelial cells (HUVEC) and fibroblasts modeled by human mesenchymal stem cells (MSCs). The concentration ranges selected for each drug and investigational agent were based upon clinically achievable concentrations if the clinical Cmax of the agent was known.
Compounds. The drugs and investigational agents: abemaciclib (NSC768073), cobimetinib (NSC768068), divarasib (GDC6063, NSC841802), docetaxel (NSC628503), GDC-1971 (RLY-1971, NSC841576), gemcitabine (NSC613327), inavolisib (NSC800729), ipatasertib (NSC767898), KB-0742 (NSC834161), MRTX-1133 (NSC836407), osimertinib (NSC779217), RMC-4630 (NSC839698), RMC-6236 (NSC851965), RMC-6291 (NSC852671), Ro-3306 (NSC812927), sapanisertib (NSC764658), SN-38 (NSC673596), staurosporine (NSC755774), SY5609 (NSC837396), and tovorafenib (DAY101, NSC766906), were obtained from the National Cancer Institute (NCI) Developmental Therapeutics Program Chemical Repository. The FDA-approved anticancer drug set is available from the NCI Developmental Therapeutics Program. […] The stock solutions were prepared in dimethyl sulfoxide (DMSO, Sigma-Aldrich, St. Louis, MO, cat. D2650) at 800-fold the tested concentration and stored at -70 degrees C prior to their use. All drugs and investigational agents were tested over a range starting from a high concentration at or near the clinical Cmax and decreasing in half-log increments. If the clinical Cmax for an agent had not been determined, the highest concentration tested was 10 microM.
Cell Culture. All cells were maintained in an incubator at 37 degrees C and 5% CO2 with 95% humidity. The PDC lines were cultured according to standard operating procedures established by the NCI PDMR. All PDCs were thawed and cultured in Matrigel-coated flasks prepared with a working solution of 1X Ham's F-12 nutrient mix, without supplementation (Invitrogen, Waltham, MA, cat. 11765054), 100 U/mL penicillin-streptomycin (Invitrogen, cat. 15140122), and 2.5% Matrigel (Corning Inc., Corning, NY, cat. 354248) for the first three passages. The 362531-283-R-J2-PDC and 782815-120-R-J1-PDC lines were cultured in 6C/Colon 1B media, which includes advanced DMEM/F-12 (Thermo Fisher Scientific, cat. 12634028), 10 mM HEPES (Thermo Fisher Scientific, cat. 15630080), 1X GlutaMAX supplement (Thermo Fisher Scientific, cat. 35050061), 0.1 mg/mL primocin (InvivoGen, San Diego, CA, cat. ant-pm-2), 10% defined fetal bovine serum, heat inactivated (HyClone Laboratories Inc., Logan, UT, cat. SH30070.03HI), 50% L-WRN conditioned media (ATCC, cat. CRL-3276), 1.25 mM N-Acetyl-L-cysteine (Sigma-Aldrich, cat. A9165), 10 mM nicotinamide (Sigma-Aldrich, cat. N0636), 1X B-27 supplement (Thermo Fisher Scientific, cat. 17504044), 1X N-2 supplement (Thermo Fisher Scientific, cat. 17502048), 50 ng/mL human EGF (Thermo Fisher Scientific, cat. PHG0311), and 10 microM Y-27632 dihydrochloride (Tocris Bioscience, cat. 1254). The K12877-001-R-J1-PDC line was cultured in 6I media, which includes all 6C/Colon 1B media plus 10 ng/mL human FGF-10 (PeproTech, cat. 100-26), 1 ng/mL human FGF-2 (PeproTech, cat. 100-18B), 1 µM prostaglandin E2 (Tocris Bioscience, cat. 2296), […] hydrocortisone (Sigma-Aldrich, cat. H4001), and […] bovine insulin (Sigma-Aldrich, cat. I6634). The K86415-001-R-J1-PDC line was cultured in 6D media, which includes all 6C/Colon 1B media components minus the L-WRN conditioned media. The 485176-168-R4-J1-PDC was cultured in PANC media, which includes all 6C/Colon 1B media plus 100 ng/mL human FGF-10 (PeproTech, cat. 100-26), 500 nM SB-431542 (Selleckchem, cat. S1067), and 10 nM gastrin (Tocris Bioscience, cat. 3006). […]
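Also: spheroids exposed to compound for 7 days before readout.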
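For viability, T/C in this document: 100% = DMSO vehicle control wells.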

C=CC(=O)N1CCN(c2nc(OCC3CCCN3C)nc3c(F)c(-c4nc(N)cc(C)c4C(F)(F)F)c(Cl)cc23)C(C)C1 (stereo not drawn) + CCn1c(-c2cccnc2C(C)OC)c2c3cc(ccc31)N1CCOC(CC(NC(=O)C(C(C)C)N(C)C(=O)C3(F)CCN(C(=O)C#CC(C)(C)N(C)C)CC3)C(=O)N3CCCC(N3)C(=O)OCC(C)(C)C2)C1
pIC50 (curve of first compound, second compound 0.000949 µM): < 6.00
pIC50 (curve of first compound, second compound 0.003 µM): < 6.00
pIC50 (curve of first compound, second compound 0.00949 µM): < 6.00
pIC50 (curve of first compound, second compound 0.03 µM): < 6.00
pIC50 (curve of first compound, second compound 0.0949 µM): < 6.00
pIC50 (curve of first compound, second compound 0.3 µM): < 6.00
viability, T/C (second compound 0.000949 µM, first compound 0.00316 µM): 111%
viability, T/C (second compound 0.000949 µM, first compound 0.01 µM): 98.5%
viability, T/C (second compound 0.000949 µM, first compound 0.0316 µM): 88.2%
viability, T/C (second compound 0.000949 µM, first compound 0.1 µM): 113%
viability, T/C (second compound 0.000949 µM, first compound 0.316 µM): 93.8%
viability, T/C (second compound 0.000949 µM, first compound 1 µM): 79.2%
viability, T/C (second compound 0.003 µM, first compound 0.00316 µM): 115%
viability, T/C (second compound 0.003 µM, first compound 0.01 µM): 93.2%
viability, T/C (second compound 0.003 µM, first compound 0.0316 µM): 99.8%
viability, T/C (second compound 0.003 µM, first compound 0.1 µM): 84.8%
viability, T/C (second compound 0.003 µM, first compound 0.316 µM): 95.4%
viability, T/C (second compound 0.003 µM, first compound 1 µM): 86.7%
viability, T/C (second compound 0.00949 µM, first compound 0.00316 µM): 103%
viability, T/C (second compound 0.00949 µM, first compound 0.01 µM): 87%
viability, T/C (second compound 0.00949 µM, first compound 0.0316 µM): 79.5%
viability, T/C (second compound 0.00949 µM, first compound 0.1 µM): 76%
viability, T/C (second compound 0.00949 µM, first compound 0.316 µM): 93.1%
viability, T/C (second compound 0.00949 µM, first compound 1 µM): 83.9%
viability, T/C (second compound 0.03 µM, first compound 0.00316 µM): 98.6%
viability, T/C (second compound 0.03 µM, first compound 0.01 µM): 110%
viability, T/C (second compound 0.03 µM, first compound 0.0316 µM): 97.5%
viability, T/C (second compound 0.03 µM, first compound 0.1 µM): 92.7%
viability, T/C (second compound 0.03 µM, first compound 0.316 µM): 78%
viability, T/C (second compound 0.03 µM, first compound 1 µM): 99.8%
viability, T/C (second compound 0.0949 µM, first compound 0.00316 µM): 86.6%
viability, T/C (second compound 0.0949 µM, first compound 0.01 µM): 93.5%
viability, T/C (second compound 0.0949 µM, first compound 0.0316 µM): 92.6%
viability, T/C (second compound 0.0949 µM, first compound 0.1 µM): 86.9%
viability, T/C (second compound 0.0949 µM, first compound 0.316 µM): 87%
viability, T/C (second compound 0.0949 µM, first compound 1 µM): 90.5%
viability, T/C (second compound 0.3 µM, first compound 0.00316 µM): 85.7%
viability, T/C (second compound 0.3 µM, first compound 0.01 µM): 87.3%
viability, T/C (second compound 0.3 µM, first compound 0.0316 µM): 89.2%
viability, T/C (second compound 0.3 µM, first compound 0.1 µM): 75.7%
viability, T/C (second compound 0.3 µM, first compound 0.316 µM): 95.1%
viability, T/C (second compound 0.3 µM, first compound 1 µM): 81.7%

Cc1nc(N2CCC3(CC2)COC(C)C3N)c(CO)nc1Sc1ccnc(N)c1Cl (stereo not drawn) + C=CC(=O)N1CCN(c2nc(OCC3CCCN3C)nc3c(F)c(-c4nc(N)cc(C)c4C(F)(F)F)c(Cl)cc23)C(C)C1
pIC50 (curve of first compound, second compound 0.00316 µM): < 5.00
pIC50 (curve of first compound, second compound 0.01 µM): < 5.00
pIC50 (curve of first compound, second compound 0.0316 µM): < 5.00
pIC50 (curve of first compound, second compound 0.1 µM): < 5.00
pIC50 (curve of first compound, second compound 0.316 µM): < 5.00
pIC50 (curve of first compound, second compound 1 µM): < 5.00
viability, T/C (second compound 0.00316 µM, first compound 0.0316 µM): 115%
viability, T/C (second compound 0.00316 µM, first compound 0.1 µM): 136%
viability, T/C (second compound 0.00316 µM, first compound 0.316 µM): 102%
viability, T/C (second compound 0.00316 µM, first compound 1 µM): 80.1%
viability, T/C (second compound 0.00316 µM, first compound 3.16 µM): 104%
viability, T/C (second compound 0.00316 µM, first compound 10 µM): 105%
viability, T/C (second compound 0.01 µM, first compound 0.0316 µM): 129%
viability, T/C (second compound 0.01 µM, first compound 0.1 µM): 120%
viability, T/C (second compound 0.01 µM, first compound 0.316 µM): 89.3%
viability, T/C (second compound 0.01 µM, first compound 1 µM): 70.8%
viability, T/C (second compound 0.01 µM, first compound 3.16 µM): 94%
viability, T/C (second compound 0.01 µM, first compound 10 µM): 116%
viability, T/C (second compound 0.0316 µM, first compound 0.0316 µM): 118%
viability, T/C (second compound 0.0316 µM, first compound 0.1 µM): 124%
viability, T/C (second compound 0.0316 µM, first compound 0.316 µM): 99.1%
viability, T/C (second compound 0.0316 µM, first compound 1 µM): 77.4%
viability, T/C (second compound 0.0316 µM, first compound 3.16 µM): 100%
viability, T/C (second compound 0.0316 µM, first compound 10 µM): 120%
viability, T/C (second compound 0.1 µM, first compound 0.0316 µM): 157%
viability, T/C (second compound 0.1 µM, first compound 0.1 µM): 119%
viability, T/C (second compound 0.1 µM, first compound 0.316 µM): 89.4%
viability, T/C (second compound 0.1 µM, first compound 1 µM): 84.6%
viability, T/C (second compound 0.1 µM, first compound 3.16 µM): 83.1%
viability, T/C (second compound 0.1 µM, first compound 10 µM): 113%
viability, T/C (second compound 0.316 µM, first compound 0.0316 µM): 132%
viability, T/C (second compound 0.316 µM, first compound 0.1 µM): 151%
viability, T/C (second compound 0.316 µM, first compound 0.316 µM): 96%
viability, T/C (second compound 0.316 µM, first compound 1 µM): 85%
viability, T/C (second compound 0.316 µM, first compound 3.16 µM): 102%
viability, T/C (second compound 0.316 µM, first compound 10 µM): 113%
viability, T/C (second compound 1 µM, first compound 0.0316 µM): 141%
viability, T/C (second compound 1 µM, first compound 0.1 µM): 130%
viability, T/C (second compound 1 µM, first compound 0.316 µM): 93.2%
viability, T/C (second compound 1 µM, first compound 1 µM): 85.7%
viability, T/C (second compound 1 µM, first compound 3.16 µM): 112%
viability, T/C (second compound 1 µM, first compound 10 µM): 113%

CCN1CCN(Cc2ccc(Nc3ncc(F)c(-c4cc(F)c5nc(C)n(C(C)C)c5c4)n3)nc2)CC1
viability, T/C (compound 0.00316 µM): 102% [middle of 4 runs]
viability, T/C (compound 0.0316 µM): 102% [middle of 4 runs]
viability, T/C (compound 0.1 µM): 99.1% [middle of 4 runs]
pIC50 (curve of compound): < 6.00
